Literature values in PMC11083148, “Structure–Activity Relationship Studies on Highly Functionalized Pyrazole Hydrazones and Amides as Antiproliferative and Antioxidant Agents” (International Journal of Molecular Sciences, 2024).
pIC50: −log10 of the molar value.

Parameters: method as in PMID 32932211
Details: ABTS scavenging assay; cited from earlier work

## Nc1c(C(F)(F)F)n[nH]c1-c1cccs1 [IIb]
  pIC50: 4.75
  Trolox equivalent antioxidant capacity (TEAC): 1.10
